System: HEP-G2 cells
Assay: Inhibition of cholesterol biosynthesis (14C-acetate incorporation into cholesterol)
Type: cell-based
Details: Homo sapiens, HepG2; HEP-G2 monolayers, 1 h preincubation, 3 h with 14C-sodium acetate; read-out: IC50 value (concentration at which 50% of the cholesterol synthesis was inhibited)
Experimental: 4. Inhibition of cholesterol biosynthesis
The biological effectiveness of the compound of the formula I was determined using cell cultures of cell line HEP-G2. For this purpose, monolayers of HEP-G2 cells were preincubated for one hour in a lipo-protein-free culture medium containing appropriate concentrations of the test substances; after the ^14 C-labeled precursor ^14 C-(sodium acetate) has been added, incubation is continued for three hours. After this, a portion of the cells are subjected to alkaline hydrolysis, an internal standard of ^3 H-cholesterol having been added previously. The lipids of the hydrolysed cells are extracted using chloroform/methanol. Support-cholesterol is added, and this lipid mixture is then separated by means of preparative thin-layer chromatography; the cholesterol band is made visible and then isolated, and the amount ^14 C-cholesterol which has been formed from the ^14 C-precursor is determined scintigraphically. […] In aliquots of the cell culture, the intactness of the cell culture and lack of damage to cells by the influence of preparations is assessed morphologically (in an optical microscope) and biochemically by determining the amount of lactate dehydrogenase in the incubation medium. […]

Structure (SMILES): CC[C@H](C)C(=O)O[C@H]1C[C@@H](C)C=C2C=C[C@H](C)[C@H](CC[C@@H]3C[C@@H](O)CC(=O)O3)[C@H]21 [lovastatin]
- IC50: 20 nM
